{"source": "patent US5750648A", "about": "“Retroviral protease inhibitors and combinations thereof” (G.D. Searle & Co., priority 1994, dated 1998)", "key": {"[1]": {"target": "HIV protease (Human immunodeficiency virus type 1 group M subtype B, UniProt P04585)", "test": "HIV protease enzyme assay (fluorescent substrate 2-aminobenzoyl-Ile-Nle-Phe(p-NO2)-Gln-ArgNH2)", "type": "biochemical", "settings": "for IC50: concentration at which the inhibitor reduces enzyme activity by 50%, enzyme about 12.3 nanomolar, substrate about 80 μM, pH 6.4", "source_text": "The compounds of the present invention are advantageously effective HIV protease inhibitors. Utilizing an enzyme assay as described below, the compounds set forth in the examples herein disclosed inhibited the HIV enzyme. The preferred compounds of the present invention and their calculated IC50 (the concentration at which the inhibitor compound reduces enzyme activity by 50%) values are shown in Table 2.\nThe enzyme method is as follows. The substrate is 2-aminobenzoyl-Ile-Nle-Phe(p-NO2)-Gln-ArgNH2. The positive control is MVT-101 (Miller, M. et al, Science, 246, 1149 (1989)). The assay buffer is 20 mM sodium phosphate, pH 6.4, 20% glycerol, 1 mM EDTA, 1 mM DTT and 0.1% CHAPS. The substrate is dissolved in DMSO, then diluted 10 fold in assay buffer. Final substrate concentration in the assay is about 80 μM. HIV protease is diluted in the assay buffer to a final enzyme concentration of about 12.3 nanomolar, based on a molecular weight of 10,780.\nThe final concentration of DMSO is about 14% and the final concentration of glycerol is about 18%. The test compound is dissolved in DMSO and diluted in DMSO to ten times (10×) the test concentration. Ten microliters (10 μL) of the enzyme preparation is added, the materials mixed and then the mixture is incubated at ambient temperature for 15 minutes. The enzyme reaction is initiated by the addition of 40 μL of substrate. The increase in fluorescence is monitored at 4 time points (0, 8, 16 and 24 minutes) at ambient temperature. Each assay is carried out in duplicate wells."}, "[2]": {"test_system": "HIV-1 in CEM cells", "test": "CEM cell assay, HIV inhibition in acutely infected cells (MTT)", "type": "cell-based", "settings": "Human immunodeficiency virus 1, CCRF-CEM, 168 h; HIV-1 infected CEM cells, 7 days", "experimental": "The effectiveness of selected compounds of the present invention were determined in the above-described enzyme assay and in a CEM cell assay. The HIV inhibition assay method of acutely infected cells is an automated tetrazolium based calorimetric assay essentially that reported by Pauwles et al, J. Virol. Methods 20, 309-321 (1988). Assays were performed in 96-well tissue culture plates. CEM cells, a CD4+ cell line, were grown in RPMI-1640 medium (Gibco) supplemented with a 10% fetal calf serum and were then treated with polybrene (2 μg/ml). An 80 μl volume of medium containing 1×10^4 cells was dispensed into each well of the tissue culture plate. To each well was added a 100 μl volume of test compound dissolved in tissue culture medium (or medium without test compound as a control) to achieve the desired final concentration and the cells were incubated at 37° C. for 1 hour. A frozen culture of HIV-1 was diluted in culture medium to a concentration of […] (TCID50=the dose of virus that infects 50% of cells in tissue culture), and a 20 μL volume of the virus sample (containing 1000 TCID50 of virus) was added to wells containing test compound and to wells containing only medium (infected control cells). Several wells received culture medium without virus (uninfected control cells). Likewise, the intrinsic toxicity of the test compound was determined by adding medium without virus to several wells containing test compound. In summary, the tissue culture plates contained the following experiments: In experiments 2 and 4 the final concentrations of test compounds were 1, 10, 100 and 500 μg/ml. Either azidothymidine (AZT) or dideoxyinosine (ddI) was included as a positive drug control. […] DMSO was added to all control wells at an appropriate concentration. Following the addition of virus, cells were incubated at 37° C. in a humidified, 5% CO2 atmosphere for 7 days. Test compounds could be added on days 0, 2 and 5 if desired. On day 7, post-infection, the cells in each well were resuspended and a 100 μl sample of each cell suspension was removed for assay. A 20 μL volume of a 5 mg/ml solution of 3-(4,5-dimethylthiazol-2-yl)-2,5-diphenyltetrazolium bromide (MTT) was added to each 100 μL cell suspension, and the cells were incubated for 4 hours at […] in a 5% CO2 environment. […] To each sample was added 100 μl of 10% sodium dodecylsulfate in 0.01N HCl to lyse the cells, and samples were incubated overnight. The absorbance at 590 nm was determined for each sample using a Molecular Devices microplate reader. Absorbance values for each set of wells is compared to assess viral control infection, uninfected control cell response as well as test compound by cytotoxicity and antiviral efficacy."}}, "note": "Counter-ions that a name gives are not always drawn.", "data": [{"smiles": "CC(C)CCN(C[C@@H](O)[C@H](Cc1ccccc1)NC(=O)[C@@H](NC(=O)CNC(=O)OC(C)(C)C)C(C)(C)C)C(=O)NC(C)(C)C", "note": "[Example 17, (2R, 3S)-3-(N-tert-butoxycarbonyl-glycinyl-L-tert-butylglycinyl) amino-1-[N-isoamyl-N-(tert-butylcarbamoyl)]amino-4-phenyl-2-butanol]", "values": [{"measurement": "IC50", "setting": "[1]", "result": 0.01, "unit": "µM"}]}, {"smiles": "CC[C@H](C)[C@H](NC(=O)[C@@H]1CCCN1)C(=O)N[C@@H](Cc1ccccc1)[C@H](O)CN(CCC(C)C)C(=O)NC(C)(C)C", "note": "[Example 25, (2R, 3S)-3-(L-prolyl-L-isoleucinyl)amino-1-[N-isoamyl-N-(tert-butylcarbamoyl)]amino-4-phenyl-2-butanol]", "values": [{"measurement": "IC50", "setting": "[1]", "result": 0.051, "unit": "µM"}]}, {"smiles": "CC(C)CCN(C[C@@H](O)[C@H](Cc1ccccc1)NC(=O)[C@@H](NC(=O)[C@@H]1CCCN1C(=O)OC(C)(C)C)C(C)(C)C)C(=O)NC(C)(C)C", "note": "[Example 21, (2R, 3S)-3-(N-tert-butoxycarbonyl-L-prolyl-L-tert-butylglycinyl) amino-1-[N-isoamyl-N-(tert-butylcarbamoyl)]amino-4-phenyl-2-butanol]", "values": [{"measurement": "inhibition at 10 µM", "setting": "[1]; @ 10 μM, read-out: inhibition of HIV protease (IC50)", "result": 61, "unit": "%"}]}, {"smiles": "CC[C@H](C)[C@H](NC(=O)[C@@H]1CCCN1C(=O)OCc1ccccc1)C(=O)N[C@@H](Cc1ccccc1)[C@H](O)CN(CCC(C)C)C(=O)NC(C)(C)C", "note": "[Example 24, (2R, 3S)-3-(N-benzyloxycarbonyl-L-prolyl-L-isoleucinyl)amino-1-[N-isoamyl-N-(tert-butylcarbamoyl)]amino-4-phenyl-2-butanol]", "values": [{"measurement": "IC50", "setting": "[1]", "result": 0.52, "unit": "µM"}]}, {"smiles": "CC(C)CCN(C[C@@H](O)[C@H](Cc1ccccc1)NC(=O)[C@@H](NC(=O)[C@H](C)N(C)C(=O)OCc1ccccc1)C(C)(C)C)C(=O)NC(C)(C)C", "note": "[Example 13, (2R, 3S)-3-(N-benzyloxycarbonyl-N-methyl-L-alaninyl-L-tert-butylglycinyl)amino-1-[N-isoamyl-N-(tert-butylcarbamoyl)]amino-4-phenyl-2-butanol]", "values": [{"measurement": "IC50", "setting": "[1]", "result": 0.014, "unit": "µM"}, {"measurement": "EC50", "setting": "[2]", "result": 0.034, "unit": "mg/L"}]}, {"smiles": "CN[C@H](C)C(=O)N[C@H](C(=O)N[C@@H](Cc1ccccc1)[C@H](O)CN(CCC(C)C)C(=O)NC(C)(C)C)C(C)(C)C", "note": "[Example 16, (2R, 3S)-3-(N-methyl-D-alaninyl-L-tert-butylglycinyl)amino-1-[N-isoamyl-N-(tert-butylcarbamoyl)]amino-4-phenyl-2-butanol]", "values": [{"measurement": "IC50", "setting": "[1]", "result": 0.018, "unit": "µM"}, {"measurement": "EC50", "setting": "[2]", "result": 0.059, "unit": "mg/L"}]}, {"smiles": "CC[C@H](C)[C@H](NC(=O)[C@@H](C)NC)C(=O)N[C@@H](Cc1ccccc1)[C@H](O)CN(CCC(C)C)C(=O)NC(C)(C)C", "note": "[Example 23, (2R, 3S)-3-(N-methyl-D-alaninyl-L-isoleucinyl)amino-1-[N-isoamyl-N-(tert-butylcarbamoyl)]amino-4-phenyl-2-butanol]", "values": [{"measurement": "IC50", "setting": "[1]", "result": 0.079, "unit": "µM"}]}, {"smiles": "CNCC(=O)N[C@H](C(=O)N[C@@H](Cc1ccccc1)[C@H](O)CN(CCC(C)C)C(=O)NC(C)(C)C)C(C)(C)SC", "note": "[5 (Part I), (2R, 3S)-3-(N-methylaminoacetyl-S-methyl-L-penicillaminyl)amido-1-[N-isoamyl-N-(tert-butylcarbamoyl)]amino-4-phenyl-2-butanol]", "values": [{"measurement": "IC50", "setting": "[1]", "result": 0.014, "unit": "µM"}]}, {"smiles": "CC(C)CCN(C[C@@H](O)[C@H](Cc1ccccc1)NC(=O)[C@@H](NC(=O)[C@@H]1CCCN1C(=O)OCc1ccccc1)C(C)(C)C)C(=O)NC(C)(C)C", "note": "[Example 19, (2R, 3S)-3-(N-benzyloxycarbonyl-L-prolyl-L-tert-butylglycinyl) amino-1-[N-isoamyl-N-(tert-butylcarbamoyl)]amino-4-phenyl-2-butanol]", "values": [{"measurement": "IC50", "setting": "[1]", "result": 2.2, "unit": "µM"}]}, {"smiles": "CC[C@H](C)[C@H](NC(=O)[C@@H](C)N(C)C(=O)OCc1ccccc1)C(=O)N[C@@H](Cc1ccccc1)[C@H](O)CN(CCC(C)C)C(=O)NC(C)(C)C", "note": "[Example 22, (2R, 3S)-3-(N-benzyloxycarbonyl-N-methyl-D-alaninyl-L-isoleucinyl)amino-1-[N-isoamyl-N-(tert-butylcarbamoyl)]amino-4-phenyl-2-butanol]", "values": [{"measurement": "IC50", "setting": "[1]", "result": 0.37, "unit": "µM"}]}, {"smiles": "CN[C@@H](C)C(=O)N[C@H](C(=O)N[C@@H](Cc1ccccc1)[C@H](O)CN(CCC(C)C)C(=O)NC(C)(C)C)C(C)(C)C", "note": "[Example 14, (2R, 3S)-3-(N-methyl-L-alaninyl-L-tert-butylglycinyl)amino-1-[N-isoamyl-N-(tert-butylcarbamoyl)]amino-4-phenyl-2-butanol]", "values": [{"measurement": "IC50", "setting": "[1]", "result": 0.008, "unit": "µM"}, {"measurement": "EC50", "setting": "[2]", "result": 0.096, "unit": "mg/L"}]}, {"smiles": "CC(C)CCN(C[C@@H](O)[C@H](Cc1ccccc1)NC(=O)[C@@H](NC(=O)CN)C(C)(C)C)C(=O)NC(C)(C)C", "note": "[Example 18, (2R, 3S)-3-(glycinyl-L-tert-butylglycinyl)amino-1-[N-isoamyl-N-(tert-butylcarbamoyl)]amino-4-phenyl-2-butanol Hydrochloride Salt]", "values": [{"measurement": "IC50", "setting": "[1]", "result": 0.01, "unit": "µM"}, {"measurement": "EC50", "setting": "[2]", "result": 0.038, "unit": "mg/L"}]}, {"smiles": "CC(C)CCN(C[C@@H](O)[C@H](Cc1ccccc1)NC(=O)[C@@H](NC(=O)[C@@H]1CCCN1)C(C)(C)C)C(=O)NC(C)(C)C", "note": "[Example 20, (2R, 3S)-3-(L-prolyl-L-tert-butylglycinyl)amino-1-[N-isoamyl-N-(tert-butylcarbamoyl)]amino-4-phenyl-2-butanol]", "values": [{"measurement": "IC50", "setting": "[1]", "result": 0.009, "unit": "µM"}]}, {"smiles": "CC[C@H](C)[C@H](NC(=O)CN(C)C)C(=O)N[C@@H](Cc1ccccc1)[C@H](O)CN(CCC(C)C)C(=O)NC(C)(C)C", "note": "[Example 3, (2R,3S)-3-(N,N-dimethylaminoacetyl-L-isoleucinyl)amido-1-[N-isoamyl-N-(tert-butylcarbamoyl)]amino-4-phenyl-2-butanol]", "values": [{"measurement": "IC50", "setting": "[1]", "result": 0.014, "unit": "µM"}, {"measurement": "EC50", "setting": "[2]", "result": 0.066, "unit": "µM"}]}, {"smiles": "CC(C)CCN(C[C@@H](O)[C@H](Cc1ccccc1)NC(=O)[C@@H](NC(=O)[C@@H](C)N(C)C(=O)OCc1ccccc1)C(C)(C)C)C(=O)NC(C)(C)C", "note": "[Example 15, (2R, 3S)-3-(N-benzyloxycarbonyl-N-methyl-D-alaninyl-L-tert-butylglycinyl)amino-1-[N-isoamyl-N-(tert-butylcarbamoyl)]amino-4-phenyl-2-butanol]", "values": [{"measurement": "IC50", "setting": "[1]", "result": 0.07, "unit": "µM"}]}]}
